The subject of assay [1] is HCV genotype 1a (H77 strain) replicon in HUH-7 cells. The assay can be described thus: HCV replicon luciferase reporter assay, genotype 1a. The class given is cell-based. Particulars: Hepatitis C virus, Huh-7, 72 h, HCV genotype 1a replicon luciferase assay, 3 days incubation, range class, read-out: LE_1a (EC50, range). The method, boiled down:
(§1)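 Replicon inhibition for both genotypes was measured as Renilla luciferase signal (EnduRen, 7.5 μM final, 2 h) after 3-day, 37° C exposure of replicon-bearing HUH-7 cells in 4% FCS DMEM, 0.5% DMSO. The 1b construct carries S1179I; the 1a H77 construct carries P1496L and S2204I. Twenty-point, 3-fold dilutions were fitted four-parametrically for EC50, and CC50 was taken from multiplexed Cell Titer-Blue.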
Background: Replicon systems follow genome replication, usually without infectious particles.

Assay [2] has as its system HCV genotype 1b (Con1) replicon in HUH-7 cells. Put plainly: HCV replicon luciferase reporter assay, genotype 1b. Particulars: Hepatitis C virus, Huh-7, 72 h, HCV genotype 1b replicon luciferase assay, 3 days incubation, range class, read-out: LE_1b (EC50, range). The class given is cell-based. In outline:
as §1

The EC50 is the concentration needed to bring the measured effect to its halfway point. Regarding `COc1ccc2c(O[C@@H]3C[C@H]4C(=O)N[C@]5(C(=O)NS(=O)(=O)C6CC6)C[C@H]5/C=C\CC[C@H](C)C[C@@H](C)[C@H](NC(=O)OC(C)(C)C(F)(F)F)C(=O)N4C3)nc(-c3ccc(OC)c(Cl)c3)cc2c1` [Compound 3051, 1,1,1-trifluoro-2-methylpropan-2-yl((2R,6S,7R,9S,13aS,14aR,16aS,Z)-2-((3-(3-chloro-4-methoxyphenyl)-6-methoxyisoquinolin-1-yl)oxy)-14a-((cyclopropylsulfonyl)carbamoyl)-7,9-dimethyl-5,16-dioxo-1,2,3,5,6,7,8,9,10,11,13a,14,14a,15,16,16a-hexadecahydrocyclopropa[e]pyrrolo[1,2-a][1,4]diazacyclopentadecin-6-yl)carbamate], the EC50 in assay [1] was 4.82 to 103 nM; in assay [2], below 5.46 nM.
For `COc1ccc2c(O[C@@H]3C[C@H]4C(=O)N[C@]5(C(=O)NS(=O)(=O)C6CC6)C[C@H]5/C=C\CC[C@@H](C)C[C@@H](C)[C@H](NC(=O)OC(C)(C)C(F)(F)F)C(=O)N4C3)nc(-c3ccc(OC)c(Cl)c3)cc2c1` [Compound 3052, 1,1,1-trifluoro-2-methylpropan-2-yl((2R,6S,7R,9R,13aS,14aR,16aS,Z)-2-((3-(3-chloro-4-methoxyphenyl)-6-methoxyisoquinolin-1-yl)oxy)-14a-((cyclopropylsulfonyl)carbamoyl)-7,9-dimethyl-5,16-dioxo-1,2,3,5,6,7,8,9,10,11,13a,14,14a,15,16,16a-hexadecahydrocyclopropa[e]pyrrolo[1,2-a][1,4]diazacyclopentadecin-6-yl)carbamate] the same measures were below 5.46 nM and below 5.46 nM.
For `COc1ccc2c(O[C@@H]3C[C@H]4C(=O)N[C@]5(C(=O)NS(=O)(=O)C6CC6)C[C@H]5/C=C\CC[C@H](C)C[C@@H](C)[C@H](NC(=O)O[C@@H]5C[C@@H]6C[C@@H]6C5)C(=O)N4C3)nc(-c3ccc(OC)c(Cl)c3)cc2c1` [Compound 3053, (1R,3r,5S)-bicyclo[3.1.0]hexan-3-yl((2R,6S,7R,9S,13aS,14aR,16aS,Z)-2-((3-(3-chloro-4-methoxyphenyl)-6-methoxyisoquinolin-1-yl)oxy)-14a-((cyclopropylsulfonyl)carbamoyl)-7,9-dimethyl-5,16-dioxo-1,2,3,5,6,7,8,9,10,11,13a,14,14a,15,16,16a-hexadecahydrocyclopropa[e]pyrrolo[1,2-a][1,4]diazacyclopentadecin-6-yl)carbamate] the same measures were below 5.46 nM and below 5.46 nM.
Turning to `COc1ccc2c(O[C@@H]3C[C@H]4C(=O)N[C@]5(C(=O)NS(=O)(=O)C6CC6)C[C@H]5/C=C\CC[C@@H](C)C[C@@H](C)[C@H](NC(=O)O[C@@H]5C[C@@H]6C[C@@H]6C5)C(=O)N4C3)nc(-c3ccc(OC)c(Cl)c3)cc2c1` [Compound 3054, (1R,3r,5S)-bicyclo[3.1.0]hexan-3-yl((2R,6S,7R,9R,13aS,14aR,16aS,Z)-2-((3-(3-chloro-4-methoxyphenyl)-6-methoxyisoquinolin-1-yl)oxy)-14a-((cyclopropylsulfonyl)carbamoyl)-7,9-dimethyl-5,16-dioxo-1,2,3,5,6,7,8,9,10,11,13a,14,14a,15,16,16a-hexadecahydrocyclopropa[e]pyrrolo[1,2-a][1,4]diazacyclopentadecin-6-yl)carbamate], the EC50 in assay [1] and in assay [2] was below 5.46 nM each time.
As to `COc1ccc2c(O[C@@H]3C[C@H]4C(=O)N[C@]5(C(=O)NS(=O)(=O)C6CC6)C[C@H]5/C=C\CC[C@H](C)C[C@@H](C)[C@H](NC(=O)OC(C)(C)C(F)(F)F)C(=O)N4C3)nc(-c3ccc(OC)c(F)c3)cc2c1` [Compound 3055, 1,1,1-trifluoro-2-methylpropan-2-yl((2R,6S,7R,9S,13aS,14aR,16aS,Z)-14a-((cyclopropylsulfonyl)carbamoyl)-2-((3-(3-fluoro-4-methoxyphenyl)-6-methoxyisoquinolin-1-yl)oxy)-7,9-dimethyl-5,16-dioxo-1,2,3,5,6,7,8,9,10,11,13a,14,14a,15,16,16a-hexadecahydrocyclopropa[e]pyrrolo[1,2-a][1,4]diazacyclopentadecin-6-yl)carbamate], the EC50 in assay [1] was 4.82 to 103 nM; in assay [2] it was below 5.46 nM.
With `COc1ccc2c(O[C@@H]3C[C@H]4C(=O)N[C@]5(C(=O)NS(=O)(=O)C6CC6)C[C@H]5/C=C\CC[C@@H](C)C[C@@H](C)[C@H](NC(=O)OC(C)(C)C(F)(F)F)C(=O)N4C3)nc(-c3ccc(OC)c(F)c3)cc2c1` [Compound 3056, 1,1,1-trifluoro-2-methylpropan-2-yl((2R,6S,7R,9R,13aS,14aR,16aS,Z)-14a-((cyclopropylsulfonyl)carbamoyl)-2-((3-(3-fluoro-4-methoxyphenyl)-6-methoxyisoquinolin-1-yl)oxy)-7,9-dimethyl-5,16-dioxo-1,2,3,5,6,7,8,9,10,11,13a,14,14a,15,16,16a-hexadecahydrocyclopropa[e]pyrrolo[1,2-a][1,4]diazacyclopentadecin-6-yl)carbamate], the EC50 in assay [1] and in assay [2] was below 5.46 nM each time.
With `COc1ccc2c(O[C@@H]3C[C@H]4C(=O)N[C@]5(C(=O)NS(=O)(=O)C6CC6)C[C@H]5/C=C\CC[C@H](C)C[C@@H](C)[C@H](NC(=O)O[C@@H]5C[C@@H]6C[C@@H]6C5)C(=O)N4C3)nc(-c3ccc(OC)c(F)c3)cc2c1` [Compound 3057, (1R,3r,5S)-bicyclo[3.1.0]hexan-3-yl((2R,6S,7R,9S,13aS,14aR,16aS,Z)-14a-((cyclopropylsulfonyl)carbamoyl)-2-((3-(3-fluoro-4-methoxyphenyl)-6-methoxyisoquinolin-1-yl)oxy)-7,9-dimethyl-5,16-dioxo-1,2,3,5,6,7,8,9,10,11,13a,14,14a,15,16,16a-hexadecahydrocyclopropa[e]pyrrolo[1,2-a][1,4]diazacyclopentadecin-6-yl)carbamate], the EC50 in assay [1] and in assay [2] was below 5.46 nM throughout.
Regarding `COc1ccc2c(O[C@@H]3C[C@H]4C(=O)N[C@]5(C(=O)NS(=O)(=O)C6CC6)C[C@H]5/C=C\CC[C@@H](C)C[C@@H](C)[C@H](NC(=O)O[C@@H]5C[C@@H]6C[C@@H]6C5)C(=O)N4C3)nc(-c3ccc(OC)c(F)c3)cc2c1` [Compound 3058, (1R,3r,5S)-bicyclo[3.1.0]hexan-3-yl((2R,6S,7R,9R,13aS,14aR,16aS,Z)-14a-((cyclopropylsulfonyl)carbamoyl)-2-((3-(3-fluoro-4-methoxyphenyl)-6-methoxyisoquinolin-1-yl)oxy)-7,9-dimethyl-5,16-dioxo-1,2,3,5,6,7,8,9,10,11,13a,14,14a,15,16,16a-hexadecahydrocyclopropa[e]pyrrolo[1,2-a][1,4]diazacyclopentadecin-6-yl)carbamate], the EC50 in assay [1] and in assay [2] was below 5.46 nM each time.
Turning to `COc1ccc2c(O[C@@H]3C[C@H]4C(=O)N[C@]5(C(=O)NS(=O)(=O)C6CC6)C[C@H]5/C=C\CC[C@H](C)C[C@@H](C)[C@H](NC(=O)OC(C)(C)C)C(=O)N4C3)nc(-c3ccc(OC(C)C)c(F)c3)cc2c1` [Compound 3059, tert-butyl ((2R,6S,7R,9S,13aS,14aR,16aS,Z)-14a-((cyclopropylsulfonyl)carbamoyl)-2-((3-(3-fluoro-4-isopropoxyphenyl)-6-methoxyisoquinolin-1-yl)oxy)-7,9-dimethyl-5,16-dioxo-1,2,3,5,6,7,8,9,10,11,13a,14,14a,15,16,16a-hexadecahydrocyclopropa[e]pyrrolo[1,2-a][1,4]diazacyclopentadecin-6-yl)carbamate], the results for the EC50 in assay [1] and in assay [2] were 4.82 to 103 nM and below 5.46 nM, respectively.
As to `COc1ccc2c(O[C@@H]3C[C@H]4C(=O)N[C@]5(C(=O)NS(=O)(=O)C6CC6)C[C@H]5/C=C\CC[C@@H](C)C[C@@H](C)[C@H](NC(=O)OC(C)(C)C)C(=O)N4C3)nc(-c3ccc(OC(C)C)c(F)c3)cc2c1` [Compound 3060, tert-butyl ((2R,6S,7R,9R,13aS,14aR,16aS,Z)-14a-((cyclopropylsulfonyl)carbamoyl)-2-((3-(3-fluoro-4-isopropoxyphenyl)-6-methoxyisoquinolin-1-yl)oxy)-7,9-dimethyl-5,16-dioxo-1,2,3,5,6,7,8,9,10,11,13a,14,14a,15,16,16a-hexadecahydrocyclopropa[e]pyrrolo[1,2-a][1,4]diazacyclopentadecin-6-yl)carbamate], the 50% effective concentration (EC50) in assay [1] and in assay [2] was below 5.46 nM throughout.
For `COc1ccc2c(O[C@@H]3C[C@H]4C(=O)N[C@]5(C(=O)NS(=O)(=O)C6(C)CC6)C[C@H]5/C=C\CC[C@H](C)C[C@@H](C)[C@H](NC(=O)OC(C)(C)C)C(=O)N4C3)nc(-c3ccc(OC(C)C)c(F)c3)cc2c1` [Compound 3061, tert-butyl ((2R,6S,7R,9S,13aS,14aR,16aS,Z)-2-((3-(3-fluoro-4-isopropoxyphenyl)-6-methoxyisoquinolin-1-yl)oxy)-7,9-dimethyl-14a-(((1-methylcyclopropyl)sulfonyl)carbamoyl)-5,16-dioxo-1,2,3,5,6,7,8,9,10,11,13a,14,14a,15,16,16a-hexadecahydrocyclopropa[e]pyrrolo[1,2-a][1,4]diazacyclopentadecin-6-yl)carbamate], the EC50 was 4.82 to 103 nM in assay [1] and below 5.46 nM in assay [2].
As for `COc1ccc2c(O[C@@H]3C[C@H]4C(=O)N[C@]5(C(=O)NS(=O)(=O)C6(C)CC6)C[C@H]5/C=C\CC[C@@H](C)C[C@@H](C)[C@H](NC(=O)OC(C)(C)C)C(=O)N4C3)nc(-c3ccc(OC(C)C)c(F)c3)cc2c1` [Compound 3062, tert-butyl ((2R,6S,7R,9R,13aS,14aR,16aS,Z)-2-((3-(3-fluoro-4-isopropoxyphenyl)-6-methoxyisoquinolin-1-yl)oxy)-7,9-dimethyl-14a-(((1-methylcyclopropyl)sulfonyl)carbamoyl)-5,16-dioxo-1,2,3,5,6,7,8,9,10,11,13a,14,14a,15,16,16a-hexadecahydrocyclopropa[e]pyrrolo[1,2-a][1,4]diazacyclopentadecin-6-yl)carbamate], the EC50 in assay [1] and in assay [2] was below 5.46 nM throughout.

These data come from patent US9499550B2 (BRISTOL-MYERS SQUIBB COMPANY, priority 2012, dated 2016).
